One block for each compound: values may come before it.
Molecular target: T1, NR2F6 (Homo sapiens, UniProt P10588)
T1 construct: expressed in transfected cells; also transient transfection
T1 sequence (P10588 1-404): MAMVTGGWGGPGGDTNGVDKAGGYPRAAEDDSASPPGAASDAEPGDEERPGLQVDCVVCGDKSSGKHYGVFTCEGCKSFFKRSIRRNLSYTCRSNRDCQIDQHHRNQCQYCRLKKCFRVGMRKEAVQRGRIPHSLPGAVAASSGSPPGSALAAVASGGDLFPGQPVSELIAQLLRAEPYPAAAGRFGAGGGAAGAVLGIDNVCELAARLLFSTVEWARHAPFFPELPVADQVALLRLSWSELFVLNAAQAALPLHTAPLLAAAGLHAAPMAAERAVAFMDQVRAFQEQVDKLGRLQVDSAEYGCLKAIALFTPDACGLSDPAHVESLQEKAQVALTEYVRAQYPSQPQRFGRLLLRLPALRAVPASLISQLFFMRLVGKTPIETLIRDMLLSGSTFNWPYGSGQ
Assay: NR2F6 agonist screening, Firefly signal cmpd/DMSO
Format: cell-based
Conditions: for Firefly/Renilla (NR2F6 stable, clone F4): ratio Firefly/Renilla; for Firefly, NR2F6 stable (clone F4)/pGL4: ratio of Firefly in NR2F6 stable clone F4 to pGL4

[1] = C11 analogs follow set (Tables 2-10), repeat 1
[2] = C11 analogs follow set (Tables 2-10), repeat 2

Firefly, cmpd/DMSO repeat 1 [1]: 3.8
Firefly, cmpd/DMSO repeat 2 [2]: 3.4
Structure (SMILES): N#Cc1cccc(S(=O)(=O)c2cc3cc(Br)ccc3oc2=O)c1 [Compound C196]

Firefly, cmpd/DMSO repeat 1 [1]: 9.2
Firefly, cmpd/DMSO repeat 2 [2]: 10.3
Firefly/Renilla (NR2F6 stable, clone F4) (Table 13): 2.9
Firefly, NR2F6 stable (clone F4)/pGL4 (Table 13): 2.9
Firefly, cmpd/DMSO repeat 1 (Table 13, repeat 1): 9.2
Firefly, cmpd/DMSO repeat 2 (Table 13, repeat 2): 10.3
Structure (SMILES): O=c1oc2ccccc2cc1S(=O)(=O)c1cccc(Cl)c1 [Compound C109]

Firefly, cmpd/DMSO repeat 1 [1]: 1.8
Firefly, cmpd/DMSO repeat 2 [2]: 2.4
Structure (SMILES): O=c1oc2ccc(Br)cc2cc1S(=O)(=O)c1cccc(Cl)c1 [Compound C192]

Firefly, cmpd/DMSO repeat 1 [1]: 1.2
Firefly, cmpd/DMSO repeat 2 [2]: 1.2
Structure (SMILES): O=c1oc2ccc(Br)cc2cc1S(=O)(=O)c1cccc(F)c1 [Compound C183]

Firefly, cmpd/DMSO repeat 1 [1]: 0.8
Firefly, cmpd/DMSO repeat 2 [2]: 0.9
Structure (SMILES): COc1ccc2oc(=O)c(S(=O)(=O)c3ccc(Br)cc3)cc2c1 [Compound C208]

Firefly, cmpd/DMSO repeat 1 [1]: 10.0
Firefly, cmpd/DMSO repeat 2 [2]: 16.6
Structure (SMILES): O=c1oc2ccc([N+](=O)[O-])cc2cc1S(=O)(=O)c1ccc(Br)cc1 [Compound C138]

Firefly, cmpd/DMSO repeat 1 [1]: 7.6
Firefly, cmpd/DMSO repeat 2 [2]: 7.2
Firefly/Renilla (NR2F6 stable, clone F4) (Table 12): 3.3
Firefly, NR2F6 stable (clone F4)/pGL4 (Table 12): 3.9
Firefly, cmpd/DMSO repeat 1 (Table 12, repeat 1): 7.6
Firefly, cmpd/DMSO repeat 2 (Table 12, repeat 2): 7.2
Structure (SMILES): Cc1cc(S(=O)(=O)c2cc3ccccc3oc2=O)ccc1F [Compound C110]

Firefly, cmpd/DMSO repeat 1 (Table 9, repeat 1): 1.5
Firefly, cmpd/DMSO repeat 2 (Table 9, repeat 2): 1.5
Structure (SMILES): COc1cccc2cc(S(=O)(=O)c3cccc(Cl)c3)c(=O)oc12 [Compound C255]

Firefly, cmpd/DMSO repeat 1 [1]: 11.0
Firefly, cmpd/DMSO repeat 2 [2]: 11.0
Firefly/Renilla (NR2F6 stable, clone F4) (Table 13): 1.4
Firefly, NR2F6 stable (clone F4)/pGL4 (Table 13): 5.8
Firefly, cmpd/DMSO repeat 1 (Table 13, repeat 1): 11.0
Firefly, cmpd/DMSO repeat 2 (Table 13, repeat 2): 11.0
Structure (SMILES): O=c1oc2ccccc2cc1S(=O)(=O)c1ccc(F)c(Cl)c1 [Compound C107]

Firefly, cmpd/DMSO repeat 1 [1]: 10.4
Firefly, cmpd/DMSO repeat 2 [2]: 6.5
Firefly/Renilla (NR2F6 stable, clone F4) (Table 13): 1.1
Firefly, NR2F6 stable (clone F4)/pGL4 (Table 13): 6.2
Firefly, cmpd/DMSO repeat 1 (Table 13, repeat 1): 10.4
Firefly, cmpd/DMSO repeat 2 (Table 13, repeat 2): 6.5
Structure (SMILES): O=c1oc2ccc(Cl)cc2cc1S(=O)(=O)c1ccccc1F [Compound C220]

Firefly, cmpd/DMSO repeat 1 [1]: 15.7
Firefly, cmpd/DMSO repeat 2 [2]: 14.1
Firefly/Renilla (NR2F6 stable, clone F4) (Table 12): 1.7
Firefly, NR2F6 stable (clone F4)/pGL4 (Table 12): 6.1
Firefly, cmpd/DMSO repeat 1 (Table 12, repeat 1): 15.7
Firefly, cmpd/DMSO repeat 2 (Table 12, repeat 2): 14.1
Structure (SMILES): Cc1ccc(S(=O)(=O)c2cc3cc(Cl)ccc3oc2=O)cc1 [Compound C202]

Firefly, cmpd/DMSO repeat 1 [1]: 4.5
Firefly, cmpd/DMSO repeat 2 [2]: 5.1
Structure (SMILES): Cc1cc(S(=O)(=O)c2cc3cc(Br)ccc3oc2=O)ccc1F [Compound C223]

Firefly, cmpd/DMSO repeat 1 [1]: 0.8
Firefly, cmpd/DMSO repeat 2 [2]: 0.7
Structure (SMILES): Cc1cc(C)cc(S(=O)(=O)c2cc3cc(Br)ccc3oc2=O)c1 [Compound C187]

Firefly, cmpd/DMSO repeat 1 [1]: 12.8
Firefly, cmpd/DMSO repeat 2 [2]: 12.0
Structure (SMILES): CC(C)c1ccc(S(=O)(=O)c2cc3cc(Cl)ccc3oc2=O)cc1 [Compound C140]

The remaining lines, values behind:

Structure (SMILES): CCOc1cccc2cc(S(=O)(=O)c3ccc(Cl)c(Cl)c3)c(=O)oc12 [Compound C246]
Firefly, cmpd/DMSO repeat 1 (Table 9, repeat 1): 7.4
Firefly, cmpd/DMSO repeat 2 (Table 9, repeat 2): 6.5

Structure (SMILES): COc1cccc2cc(S(=O)(=O)c3ccc(Br)cc3)c(=O)oc12 [Compound C233]
Firefly, cmpd/DMSO repeat 1 (Table 9, repeat 1): 2.8
Firefly, cmpd/DMSO repeat 2 (Table 9, repeat 2): 2.1

Structure (SMILES): COc1ccc2cc(S(=O)(=O)c3cc(F)cc(F)c3)c(=O)oc2c1 [Compound C262]
Firefly, cmpd/DMSO repeat 1 [1]: 1.8
Firefly, cmpd/DMSO repeat 2 [2]: 2.2

Structure (SMILES): Cc1cc(C)nc(Sc2nnc(-c3ccc(C)c(S(=O)(=O)N4CCOCC4)c3)c3ccccc23)n1 [Compound F1]
Firefly, cmpd/DMSO (mean) (mean of repeats): 5.1
Firefly, cmpd repeat 1 (raw signal, repeat 1): 310
Firefly, cmpd repeat 2 (raw signal, repeat 2): 252
Firefly, cmpd/DMSO repeat 1 (repeat 1): 5.6
Firefly, cmpd/DMSO repeat 2 (repeat 2): 4.6

Structure (SMILES): O=c1oc2ccc([N+](=O)[O-])cc2cc1S(=O)(=O)c1ccc(F)cc1 [Compound C137]
Firefly, cmpd/DMSO repeat 1 [1]: 22.6
Firefly, cmpd/DMSO repeat 2 [2]: 23.4
Firefly/Renilla (NR2F6 stable, clone F4) (Table 13): 1.4
Firefly, NR2F6 stable (clone F4)/pGL4 (Table 13): 8.4
Firefly, cmpd/DMSO repeat 1 (Table 13, repeat 1): 22.6
Firefly, cmpd/DMSO repeat 2 (Table 13, repeat 2): 23.4

Structure (SMILES): COc1ccc(S(=O)(=O)c2cc3cc(OC)ccc3oc2=O)cc1 [Compound C207]
Firefly, cmpd/DMSO repeat 1 [1]: 2.5
Firefly, cmpd/DMSO repeat 2 [2]: 2.8

Structure (SMILES): COc1cccc2cc(S(=O)(=O)c3ccc(C)cc3)c(=O)oc12 [Compound C231]
Firefly, cmpd/DMSO repeat 1 (Table 9, repeat 1): 0.7
Firefly, cmpd/DMSO repeat 2 (Table 9, repeat 2): 0.9

Structure (SMILES): COc1cccc2cc(S(=O)(=O)c3ccc(Cl)c(Cl)c3)c(=O)oc12 [Compound C245]
Firefly, cmpd/DMSO repeat 1 (Table 9, repeat 1): 1.9
Firefly, cmpd/DMSO repeat 2 (Table 9, repeat 2): 1.3

Structure (SMILES): CCOc1ccc(S(=O)(=O)c2cc3cccc(OCC)c3oc2=O)cc1 [Compound C252]
Firefly, cmpd/DMSO repeat 1 (Table 9, repeat 1): 3.2
Firefly, cmpd/DMSO repeat 2 (Table 9, repeat 2): 2.4

Structure (SMILES): COc1ccc(NC(=O)c2ccc3oc(=O)c(S(=O)(=O)c4ccc(F)cc4)cc3c2)cc1 [Compound C179]
Firefly, cmpd/DMSO repeat 1 [1]: 8.7
Firefly, cmpd/DMSO repeat 2 [2]: 10.1

Structure (SMILES): O=c1oc2c(F)cc(F)cc2cc1S(=O)(=O)c1ccc(Cl)cc1 [Compound C293]
Firefly, cmpd/DMSO repeat 1 (Table 11, repeat 1): 8.5
Firefly, cmpd/DMSO repeat 2 (Table 11, repeat 2): 11.9

Structure (SMILES): COc1ccc2cc(S(=O)(=O)c3ccc(C)cc3)c(=O)oc2c1 [Compound C265]
Firefly, cmpd/DMSO repeat 1 [1]: 1.0
Firefly, cmpd/DMSO repeat 2 [2]: 1.3

Structure (SMILES): COc1ccc(S(=O)(=O)c2cc3cc(Br)cc(Br)c3oc2=O)cc1 [Compound C283]
Firefly, cmpd/DMSO repeat 1 (Table 11, repeat 1): 1.0
Firefly, cmpd/DMSO repeat 2 (Table 11, repeat 2): 1.3

Structure (SMILES): COc1ccc(S(=O)(=O)c2cc3ccc(OC)cc3oc2=O)cc1 [Compound C266]
Firefly, cmpd/DMSO repeat 1 [1]: 0.9
Firefly, cmpd/DMSO repeat 2 [2]: 1.2

Structure (SMILES): O=C(NCCc1ccccc1)c1ccc2oc(=O)c(S(=O)(=O)c3ccc(Cl)cc3)cc2c1 [Compound C114]
Firefly, cmpd/DMSO repeat 1 [1]: 4.5
Firefly, cmpd/DMSO repeat 2 [2]: 4.7

Structure (SMILES): COc1cccc(S(=O)(=O)c2cc3cccc(OC)c3oc2=O)c1 [Compound C226]
Firefly, cmpd/DMSO repeat 1 (Table 9, repeat 1): 1.1
Firefly, cmpd/DMSO repeat 2 (Table 9, repeat 2): 1.0

Structure (SMILES): COc1cccc(NC(=O)c2ccc3oc(=O)c(S(=O)(=O)c4ccc(C)cc4)cc3c2)c1 [Compound C126]
Firefly, cmpd/DMSO repeat 1 [1]: 45.1
Firefly, cmpd/DMSO repeat 2 [2]: 44.8
Firefly/Renilla (NR2F6 stable, clone F4) (Table 13): 1.0
Firefly, NR2F6 stable (clone F4)/pGL4 (Table 13): 9.9
Firefly, cmpd/DMSO repeat 1 (Table 13, repeat 1): 45.1
Firefly, cmpd/DMSO repeat 2 (Table 13, repeat 2): 44.8

Structure (SMILES): COc1ccc2oc(=O)c(S(=O)(=O)c3ccccc3F)cc2c1 [Compound C221]
Firefly, cmpd/DMSO repeat 1 [1]: 1.3
Firefly, cmpd/DMSO repeat 2 [2]: 0.9

Structure (SMILES): COc1ccc2cc(S(=O)(=O)c3ccccc3)c(=O)oc2c1 [Compound C264]
Firefly, cmpd/DMSO repeat 1 [1]: 1.1
Firefly, cmpd/DMSO repeat 2 [2]: 0.8

Structure (SMILES): Cc1ccc(S(=O)(=O)c2cc3cc(C(=O)NCCc4ccccc4)ccc3oc2=O)cc1 [Compound C112]
Firefly, cmpd/DMSO repeat 1 [1]: 11.7
Firefly, cmpd/DMSO repeat 2 [2]: 10.1
Firefly/Renilla (NR2F6 stable, clone F4) (Table 12): 2.0
Firefly, NR2F6 stable (clone F4)/pGL4 (Table 12): 4.1
Firefly, cmpd/DMSO repeat 1 (Table 12, repeat 1): 11.7
Firefly, cmpd/DMSO repeat 2 (Table 12, repeat 2): 10.1

Structure (SMILES): CC(C)c1ccc(S(=O)(=O)c2cc3cc(Br)cc(Br)c3oc2=O)cc1 [Compound C284]
Firefly, cmpd/DMSO repeat 1 (Table 11, repeat 1): 2.9
Firefly, cmpd/DMSO repeat 2 (Table 11, repeat 2): 2.5

Structure (SMILES): CC(C)(C)c1ccc(S(=O)(=O)c2cc3cc(F)cc(F)c3oc2=O)cc1 [Compound C291]
Firefly, cmpd/DMSO repeat 1 (Table 11, repeat 1): 0.9
Firefly, cmpd/DMSO repeat 2 (Table 11, repeat 2): 0.8

Structure (SMILES): Cc1cccc(NC(=O)c2ccc3oc(=O)c(S(=O)(=O)c4ccc(Cl)cc4)cc3c2)c1C [Compound C136]
Firefly, cmpd/DMSO repeat 1 [1]: 22.1
Firefly, cmpd/DMSO repeat 2 [2]: 25.8
Firefly/Renilla (NR2F6 stable, clone F4) (Table 12): 1.7
Firefly, NR2F6 stable (clone F4)/pGL4 (Table 12): 8.1
Firefly, cmpd/DMSO repeat 1 (Table 12, repeat 1): 22.1
Firefly, cmpd/DMSO repeat 2 (Table 12, repeat 2): 25.8

Structure (SMILES): COc1ccccc1NC(=O)c1ccc2oc(=O)c(S(=O)(=O)c3ccc(F)cc3)cc2c1 [Compound C124]
Firefly, cmpd/DMSO repeat 1 [1]: 25.5
Firefly, cmpd/DMSO repeat 2 [2]: 29.8

Structure (SMILES): CCOc1cccc2cc(S(=O)(=O)c3ccc(C(C)(C)C)cc3)c(=O)oc12 [Compound C240]
Firefly, cmpd/DMSO repeat 1 (Table 9, repeat 1): 1.5
Firefly, cmpd/DMSO repeat 2 (Table 9, repeat 2): 0.9

Structure (SMILES): COc1ccc2cc(S(=O)(=O)c3cccc(C#N)c3)c(=O)oc2c1 [Compound C263]
Firefly, cmpd/DMSO repeat 1 [1]: 1.8
Firefly, cmpd/DMSO repeat 2 [2]: 1.7

Structure (SMILES): COc1ccc(S(=O)(=O)c2cc3cc(Br)cc(OC)c3oc2=O)cc1 [Compound C296]
Firefly, cmpd/DMSO repeat 1 (Table 11, repeat 1): 6.0
Firefly, cmpd/DMSO repeat 2 (Table 11, repeat 2): 7.8

Structure (SMILES): O=c1oc2ccc([N+](=O)[O-])cc2cc1S(=O)(=O)c1ccccc1 [Compound C210]
Firefly, cmpd/DMSO repeat 1 [1]: 22.8
Firefly, cmpd/DMSO repeat 2 [2]: 14.3
Firefly/Renilla (NR2F6 stable, clone F4) (Table 13): 1.5
Firefly, NR2F6 stable (clone F4)/pGL4 (Table 13): 8.2
Firefly, cmpd/DMSO repeat 1 (Table 13, repeat 1): 22.8
Firefly, cmpd/DMSO repeat 2 (Table 13, repeat 2): 14.3

Structure (SMILES): O=C(NCc1ccc(F)cc1)c1ccc2oc(=O)c(S(=O)(=O)c3ccc(F)cc3)cc2c1 [Compound C118]
Firefly, cmpd/DMSO repeat 1 [1]: 13.5
Firefly, cmpd/DMSO repeat 2 [2]: 17.1
Firefly/Renilla (NR2F6 stable, clone F4) (Table 13): 1.1
Firefly, NR2F6 stable (clone F4)/pGL4 (Table 13): 5.9
Firefly, cmpd/DMSO repeat 1 (Table 13, repeat 1): 13.5
Firefly, cmpd/DMSO repeat 2 (Table 13, repeat 2): 17.1
